Laboratory results taken from patent EP4567040A1, “CRYSTAL FORM OF FUSED TRICYCLIC DERIVATIVE AND PREPARATION METHOD” (Jiangsu Hengrui Pharmaceuticals Co., Ltd., priority 2022, dated 2024).

What was measured:
Assay type in all cases: physicochemical
[1] = Influencing factor stability study of crystal forms; settings: for physical stability / chemical stability: 30-day influencing factor experiments; for chemical stability: high temperature and high humidity conditions
Experimental: Example 50. Influencing Factor Stability Study of Crystal Forms Free-state samples were spread out, left to stand in open flasks, and subjected to 30-day stability tests under light exposure (4500 Lux), high temperature (40 °C and 60 °C), and high humidity (RH 75% and RH 92.5%) conditions.

[2] = Long-term/accelerated stability of crystal forms; settings: for Purity%: sealed in aluminum foil bag
Experimental: Free-state samples were sealed in aluminum foil bags and left to stand under 25 °C/60% RH and 40 °C/75% RH conditions to test their stability.

[3] = Hygroscopicity study of free-state crystal forms (DVS); settings: for 0.0% RH-80.0% RH (hygroscopicity, mass change): DVS, 25 °C; for Crystal form: crystal form after DVS test
Experimental: Testing was performed using Surface Measurement Systems advantage 2, at 25 °C, with the humidity changing from 50% -95%-0%-95%-50%RH, in steps of 10%. The criterion was that each gradient mass change dM/dT is less than 0.002%, TMAX 360 min, two cycles.
Surface Measurement Systems intrinsic DVS was adopted. At 25 °C, the crystal forms were tested in a humidity range of 0%-95%, with increments of 10%. The criterion was that each gradient mass change dM/dT is less than 0.002%, TMAX 360 min, two cycles.

[4] = Light exposure (4500 Lux), 7 days, open flask
[5] = Light exposure (4500 Lux), 14 days, open flask
[6] = Light exposure (4500 Lux), 30 days, open flask
[7] = 25 °C/60% RH, after standing up to 6 months
[8] = 40 °C/75% RH, after standing up to 6 months
[9] = long-term accelerated conditions for 6 months

| SMILES | physical stability [1] | Purity% ([1]; 40 °C, 7 days, open flask) | chemical stability [1] | Purity% ([2]; 25 °C/60% RH, 1 month) | Purity% ([2]; 25 °C/60% RH, 2 months) | Purity% ([2]; 25 °C/60% RH, 3 months) | Purity% ([2]; 25 °C/60% RH, 6 months) | Purity% ([2]; 25 °C/60% RH, 14 days) | Purity% ([2]; 25 °C/60% RH, Initial) | Crystal form [2, 7] | Purity% ([2]; 40 °C/75% RH, 1 month) | Purity% ([2]; 40 °C/75% RH, 2 months) | Purity% ([2]; 40 °C/75% RH, 3 months) | Purity% ([2]; 40 °C/75% RH, 6 months) | Purity% ([2]; 40 °C/75% RH, 14 days) | Purity% ([2]; 40 °C/75% RH, Initial) | Crystal form [2, 8] | physical stability and chemical stability [2, 9] | 0.0% RH-80.0% RH (hygroscopicity, mass change) [3] | Crystal form [3] | also measured |
| --- | --- | --- | --- | --- | --- | --- | --- | --- | --- | --- | --- | --- | --- | --- | --- | --- | --- | --- | --- | --- | --- |
| C[C@H]1COc2c(-c3nc(N[C@@H]4CCOC[C@H]4O)ncc3Cl)cc(F)c3nc(C(C)(C)O)n1c23 [Crystal form D, (3S,4R)-4-((5-chloro-4-((S)-8-fluoro-2-(2-hydroxypropan-2-yl)-3-methyl-3,4-dihydro-5-oxa-1,2a-diazaacenaphthylen-6-yl)pyrimidin-2-yl)amino)tetrahydro-2H-pyran-3-ol] | good physical stability | 99.9% | good chemical stability | 99.9% | 99.9% | 99.9% | 99.9% | 99.9% | 99.9% | No change | 99.9% | 99.9% | 99.9% | 99.9% | 99.9% | 99.9% | No change | good physical stability and chemical stability | 0.46% | No change | Purity% ([1]; 40 °C, 14 days, open flask): 99.9%; Purity% ([1]; 40 °C, 30 days, open flask): 99.9%; Purity% ([1]; 60 °C, 7 days, open flask): 99.9%; Purity% ([1]; 60 °C, 14 days, open flask): 99.9%; Purity% ([1]; 60 °C, 30 days, open flask): 99.9%; Purity% ([1]; 75% RH, 7 days, open flask): 99.9%; Purity% ([1]; 75% RH, 14 days, open flask): 99.9%; Purity% ([1]; 75% RH, 30 days, open flask): 99.9%; Purity% ([1]; 92.5% RH, 7 days, open flask): 99.9%; Purity% ([1]; 92.5% RH, 14 days, open flask): 99.9%; Purity% ([1]; 92.5% RH, 30 days, open flask): 99.9%; Purity% ([1]; Initial, 0 days): 99.9%; Purity% [1, 4]: 96.0%; Purity% [1, 5]: 94.6%; Purity% [1, 6]: 92.8% |
| C[C@H]1COc2c(-c3nc(N[C@@H]4CCOC[C@H]4O)ncc3Cl)cc(F)c3nc(C(C)(C)O)n1c23 [Crystal form E, (3S,4R)-4-((5-chloro-4-((S)-8-fluoro-2-(2-hydroxypropan-2-yl)-3-methyl-3,4-dihydro-5-oxa-1,2a-diazaacenaphthylen-6-yl)pyrimidin-2-yl)amino)tetrahydro-2H-pyran-3-ol] | good physical stability | 99.9% | good chemical stability | 99.9% | 99.9% | 99.9% | 99.9% | 99.9% | 99.9% | No change | 99.9% | 99.9% | 99.9% | 99.9% | 99.9% | 99.9% | No change | good physical stability and chemical stability | 3.45% | No change | Purity% ([1]; 40 °C, 14 days, open flask): 99.8%; Purity% ([1]; 40 °C, 30 days, open flask): 99.8%; Purity% ([1]; 60 °C, 7 days, open flask): 99.9%; Purity% ([1]; 60 °C, 14 days, open flask): 99.9%; Purity% ([1]; 60 °C, 30 days, open flask): 99.9%; Purity% ([1]; 75% RH, 7 days, open flask): 99.9%; Purity% ([1]; 75% RH, 14 days, open flask): 99.8%; Purity% ([1]; 75% RH, 30 days, open flask): 99.8%; Purity% ([1]; 92.5% RH, 7 days, open flask): 99.9%; Purity% ([1]; 92.5% RH, 14 days, open flask): 99.8%; Purity% ([1]; 92.5% RH, 30 days, open flask): 99.8%; Purity% ([1]; Initial, 0 days): 99.9%; Purity% [1, 4]: 99.6%; Purity% [1, 5]: 99.3%; Purity% [1, 6]: 98.7% |
| C[C@H]1COc2c(-c3nc(N[C@@H]4CCOC[C@H]4O)ncc3Cl)cc(F)c3nc(C(C)(C)O)n1c23 [Crystal form F, (3S,4R)-4-((5-chloro-4-((S)-8-fluoro-2-(2-hydroxypropan-2-yl)-3-methyl-3,4-dihydro-5-oxa-1,2a-diazaacenaphthylen-6-yl)pyrimidin-2-yl)amino)tetrahydro-2H-pyran-3-ol] | good physical stability |  | good chemical stability | 99.9% | 99.9% | 99.9% | 99.9% | 99.9% | 99.9% | No change | 99.9% | 99.9% | 99.9% | 99.9% | 99.9% | 99.9% | No change | good physical stability and chemical stability | 1.10% | No change |  |
| C[C@H]1COc2c(-c3nc(N[C@@H]4CCOC[C@H]4O)ncc3Cl)cc(F)c3nc(C(C)(C)O)n1c23 [Crystal form G, (3S,4R)-4-((5-chloro-4-((S)-8-fluoro-2-(2-hydroxypropan-2-yl)-3-methyl-3,4-dihydro-5-oxa-1,2a-diazaacenaphthylen-6-yl)pyrimidin-2-yl)amino)tetrahydro-2H-pyran-3-ol] | good physical stability |  | good chemical stability | 99.9% | 99.9% | 99.9% | 99.9% | 99.9% | 99.9% | No change | 99.9% | 99.9% | 99.9% | 99.9% | 99.9% | 99.9% | No change | good physical stability and chemical stability | 2.46% | No change |  |
| C[C@H]1COc2c(-c3nc(N[C@@H]4CCOC[C@H]4O)ncc3Cl)cc(F)c3nc(C(C)(C)O)n1c23 [Crystal form H, (3S,4R)-4-((5-chloro-4-((S)-8-fluoro-2-(2-hydroxypropan-2-yl)-3-methyl-3,4-dihydro-5-oxa-1,2a-diazaacenaphthylen-6-yl)pyrimidin-2-yl)amino)tetrahydro-2H-pyran-3-ol] | good physical stability |  | good chemical stability | 99.95% | 99.95% | 99.95% |  | 99.95% | 99.95% |  | 99.95% | 99.95% | 99.95% |  | 99.95% | 99.95% |  |  | 0.28% | No change | Crystal form ([2]; 25 °C/60% RH, after standing up to 3 months): No change; Crystal form ([2]; 40 °C/75% RH, after standing up to 3 months): No change; physical stability and chemical stability ([2]; long-term accelerated conditions for 3 months): good physical stability and chemical stability |
| C[C@H]1COc2c(-c3nc(N[C@@H]4CCOC[C@H]4O)ncc3Cl)cc(F)c3nc(C(C)(C)O)n1c23 [Free-state amorphous form, (3S,4R)-4-((5-chloro-4-((S)-8-fluoro-2-(2-hydroxypropan-2-yl)-3-methyl-3,4-dihydro-5-oxa-1,2a-diazaacenaphthylen-6-yl)pyrimidin-2-yl)amino)tetrahydro-2H-pyran-3-ol] | good physical stability |  | good chemical stability | 99.0% | 98.9% |  | 98.8% | 99.0% | 99.0% | No change | 99.0% | 98.9% |  | 98.8% | 99.0% | 99.0% | Deliquescence |  |  |  | Crystal form ([1]; 40 °C, 7 days, open flask): No change; Crystal form ([1]; 40 °C, 14 days, open flask): No change; Crystal form ([1]; 40 °C, 30 days, open flask): No change; Crystal form ([1]; 60 °C, 7 days, open flask): No change; Crystal form ([1]; 60 °C, 14 days, open flask): No change; Crystal form ([1]; 60 °C, 30 days, open flask): No change; Crystal form ([1]; 75% RH, 7 days, open flask): No change; Crystal form ([1]; 75% RH, 14 days, open flask): No change; Crystal form ([1]; 75% RH, 30 days, open flask): No change; Crystal form ([1]; 92.5% RH, 7 days, open flask): No change; Crystal form ([1]; 92.5% RH, 14 days, open flask): No change; Crystal form ([1]; 92.5% RH, 30 days, open flask): No change; Crystal form ([1]; Initial, 0 days): Free-state amorphous form; Crystal form [1, 4]: No change; Crystal form [1, 5]: No change; Crystal form [1, 6]: No change; deliquescence ([2]; accelerated conditions): deliquescence; physical stability and chemical stability ([2]; under other conditions (than those giving deliquescence)): good physical stability and chemical stability |
